Data: publication PMC6100113, “Involvement of CYP4F2 in the Metabolism of a Novel Monophosphate Ester Prodrug of Gemcitabine and Its Interaction Potential In Vitro” (Molecules : A Journal of Synthetic Chemistry and Natural …, 2018)

Assays:
Assay type in all cases: in vitro ADME
CYP3A4 = target: T1, CYP3A4 (Homo sapiens, UniProt P08684); experiment: Reaction phenotyping with recombinant CYP3A4; settings: recombinant CYP3A4 50 nM, 1 μM, NADPH
T1 construct: purchased Corning Gentest
Description: (§1) Compound-3 was incubated separately with human cDNA-expressed cytochrome P450s (CYP1A2, CYP2B6, CYP2C8, CYP2C9, CYP2C19, CYP2D6, CYP3A4, CYP4A11, CYP4F2 and CYP4F3). The incubation mixtures contained individual CYP isoenzymes (50 nM), potassium phosphate buffer (100 mM, pH 7.4), NADPH (1 mM), and Compound-3 (1 µM). The final volume of the incubation mixture was 50 µL. Before the start of the incubation, reaction mixtures were warmed up at 37 °C for 10 min. The reaction was initiated with the addition of NADPH and the incubations were performed at 37 °C in a water bath. After 60 min of incubation, the reactions were terminated with an equal volume of ice-cold acetonitrile containing the internal standard. Control samples without NADPH but substrates were included. The samples were then centrifuged and aliquots of 10 μL of the supernatants were transferred onto LC-MS/MS for the analysis of Compound-3 and M4 (carboxylic acid) levels.

[1] = Metabolic stability in human intestinal microsomes; settings: human intestinal microsomes 0.2 mg/mL, with NADPH, 1 μM, 37 °C
Description: (§2) Stability of Compound-3 was first investigated in microsomal systems from human and rat. The microsomal protein and Compound-3 concentrations were optimized to 0.2 mg/mL and 1 µM, respectively. Before the start of the incubation, reaction mixtures containing phosphate buffer (100 mM, pH 7.4), microsomes and Compound-3 in a total volume of 50 µL were warmed up at 37 °C for 10 min. The reaction was started with the addition of NADPH at a final concentration of 1 mM. Incubations were terminated at a specified time with the addition of 100 µL ice-cold acetonitrile containing the internal standard. The samples were then centrifuged, and aliquots of 10 µL of the supernatants were transferred into liquid chromatography-tandem mass spectrometry (LC-MS/MS) for the analysis of Compound-3 levels.

CYP4F2 = target: T2, CYP4F2 (Homo sapiens, UniProt P78329); experiment: Reaction phenotyping with recombinant CYP4F2; settings: recombinant CYP4F2 50 nM, 1 μM, NADPH, after 30 min incubation
T2 construct: purchased Corning Gentest
T2 sequence (P78329 5-520): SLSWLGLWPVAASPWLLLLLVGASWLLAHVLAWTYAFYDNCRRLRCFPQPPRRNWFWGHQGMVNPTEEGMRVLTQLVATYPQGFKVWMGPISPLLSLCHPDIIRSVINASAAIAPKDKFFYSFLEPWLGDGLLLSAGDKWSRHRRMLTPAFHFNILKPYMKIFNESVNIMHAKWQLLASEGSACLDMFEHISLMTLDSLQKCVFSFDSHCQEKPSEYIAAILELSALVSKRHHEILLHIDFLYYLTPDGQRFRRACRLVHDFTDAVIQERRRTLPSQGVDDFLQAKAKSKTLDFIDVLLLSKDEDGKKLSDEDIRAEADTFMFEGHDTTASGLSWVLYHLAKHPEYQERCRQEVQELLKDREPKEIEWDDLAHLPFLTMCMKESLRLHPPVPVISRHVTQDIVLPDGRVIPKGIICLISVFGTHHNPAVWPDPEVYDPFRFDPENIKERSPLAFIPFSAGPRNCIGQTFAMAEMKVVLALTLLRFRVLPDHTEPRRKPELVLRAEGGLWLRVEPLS
Description: as §1, with “After 60 min of incubation, the reactions were terminated with an equal volume of ice-cold acetonitrile containing the internal standard.” left out
The following are available online. Figure S1. Gemcitabine Formation from Compound-3 Hydrolysis as a function of alkaline phosphatase protein concentrations. Compound-3 (1 μM) was incubated with alkaline phosphatase concentrations ranging from 0.01–0.2 mg/mL at 37 °C (n = 3). Figure S2. Metabolites of Compound-3 in human recombinant CYP4F2. Compound-3 (1 μM) was incubated with human recombinant CYP4F2 (50 nM) in the presence of NADPH at 37 °C (n = 3).

[2] = Metabolite identification by UPLC/Triple TOF MS in human hepatocytes; set-up: key: √: metabolites were detected by high-resolution mass spectrometry; settings: Compound-3 10 μM, 1 × 10^6 cell/mL, 60 min, HRMS
Description: For metabolite identification, a higher concentration of Compound-3 (10 μM) was incubated with liver microsomes (1 mg/mL) in the presence of NADPH (1 mM) and primary human hepatocytes at a density of 1 × 10^6 cell/mL. Samples were collected at 0 min and 60 min with the addition of ice-cold acetonitrile. After vortexing and centrifugation, the supernatant was transferred into a new tube and evaporated to dryness. The samples were then reconstituted in 100 μL of water and methanol (v/v, 9:1). An aliquot of 10 μL of reconstituted solution was injected into UPLC/Triple TOF 5600^+ MS for metabolite identification.
Identification of Compound-3 metabolites was carried out using Acquity UPLC/Triple TOF 5600^+ system. Chromatographic separation for Compound-3 and its metabolites were achieved by an Acquity UPLC HSS T3 column (100 × 2.1 mm i.d., […]; Waters Corp.) maintained at 40 °C. The mobile phase was a mixture of 0.02% formic acid in 5 mM ammonium acetate (A) and methanol (B). The gradient elution was started from 2% B and maintained for 4 min, then increased linearly to 75% B over the next 4 min and maintained for 8 min. […] The flow rate was 0.4 mL/min and the eluent was monitored by UV detection at 280 nm.
For mass detection, a Triple TOF 5600^+ mass spectrometer (AB Sciex, Framingham, MA, USA) was operated in positive ion electrospray (ES-positive) mode with the source temperature at 500 °C and scan range from m/z 100 to 1000 Da. Other parameters were set as follows: ion spray voltage, 5500 V; decluttering potential, 80 V; curtain gas, 40 psi; ion source gas 1, 55 psi; and ion source gas 2, 50 psi. Collision energies of 25 and 65 eV were used for TOF MS and product ion scans, respectively, and a collision energy spread of 20 was used in the MS/MS analysis. Information-dependent acquisition (IDA), together with real-time multiple mass defect filter, was used to trigger acquisition of MS/MS spectra.

[3] = Metabolic stability in human liver microsomes; settings: 1 μM
Description: as §2

T1 sequence (P08684 whole entry): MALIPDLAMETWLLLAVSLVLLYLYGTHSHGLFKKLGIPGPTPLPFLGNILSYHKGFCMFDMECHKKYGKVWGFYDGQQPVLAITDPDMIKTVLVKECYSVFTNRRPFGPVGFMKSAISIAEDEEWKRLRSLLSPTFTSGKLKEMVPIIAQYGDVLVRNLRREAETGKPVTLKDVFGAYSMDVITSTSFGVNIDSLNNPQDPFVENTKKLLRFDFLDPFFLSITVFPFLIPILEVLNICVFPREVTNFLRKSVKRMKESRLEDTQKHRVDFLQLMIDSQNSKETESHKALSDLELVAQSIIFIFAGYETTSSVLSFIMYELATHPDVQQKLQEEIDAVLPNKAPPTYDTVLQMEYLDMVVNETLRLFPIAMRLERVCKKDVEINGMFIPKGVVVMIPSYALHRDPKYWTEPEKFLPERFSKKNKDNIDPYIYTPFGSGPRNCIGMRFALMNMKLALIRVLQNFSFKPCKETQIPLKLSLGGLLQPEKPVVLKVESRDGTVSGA

SMILES: CCCCCCCCCCCCCCCCCCOCCOP(=O)(O)OCC1OC(n2ccc(N)nc2=O)C(F)(F)C1O (stereo not drawn) [Compound-3]
- metabolism of Compound-3 by CYP isozyme (CYP3A4): moderate metabolic activity
- disappearance after 60 min incubation [1]: > 50%
- disappearance of Compound-3 in the presence of CYP isozyme (CYP4F2): barely detectable
- detected in matrix Human Hepatocytes [2]: √
- stability in microsomes in the absence of NADPH ([3]; human and rat liver and intestinal microsomes, absence of NADPH): relatively stable
- disappearance after 60 min incubation ([3]; human liver microsomes 0.2 mg/mL, with NADPH, 37 °C, 60 min): more than 70%
